Paper PMC10269072, “Predicting Optimal Antimalarial Drug Combinations from a Standardized Plasmodium falciparum Humanized Mouse Model” (Antimicrobial Agents and Chemotherapy, 2023)

Key:
[1] = test system: P. falciparum 3D7^0087/N9; assay: PfalcHuMouse model: therapeutic efficacy (parasite clearance, day of recrudescence, cure) in P. falciparum-infected humanized NSG mice; type: in vivo, Plasmodium falciparum; details: for exposure leading to 95% probability of cure: logistic regression of historical data; for day after which no recrudescence occurred (DoR): oral monotherapy, historical data, different dose levels and schedules, drugs with curative exposures in the data set
Description: To implement the PfalcHuMouse model for analysis of combinations, we first defined the variables of therapeutic response and their interpretation in the context of this analysis. These variables were parasite clearance (PC), parasite recrudescence (PR), and cure (Fig. 2a). […] In our studies, we estimated PC by measuring the ratio of parasitemia in blood at 48-h intervals (pDn/pDn+2, where pD stands for parasitemia and n indicates the day of the assay), which was a simplified alternative of the classical approach and is frequently used in clinical studies. Conversely, PR depends on the number of viable parasites remaining in the body that could proliferate after noneffective treatment and is not systematically used to measure parasite killing in vivo. To test PR validity, we hypothesized that the time point for recrudescent parasitemia to reach the value at the onset of drug treatment (i.e., day of recrudescence [DoR]) correlated with the number of parasites that survived antimalarial treatment ([35]). […] It is important to note that both DoRs, days 0 and 60, represented not quantifiable magnitudes but labels of specific conditions (i.e., therapeutic failure and cure, respectively).
Experimental infections were carried out as previously described ([12]), with minor modifications. Briefly, NSG mice were engrafted with hE by intraperitoneal daily injections of 1-mL hE suspensions until a minimum of 40% chimerism in peripheral blood was achieved (typically10 days of injections). The hE-engrafted mice (HuMice) were infected with 0.3 mL of a suspension of pooled blood collected by aseptic cardiac puncture from CO2-euthanized donor HuMice harboring a parasitemia of 5 to 10% P. falciparum 3D7^0087/N9.
(§1) Before drug administration, each infected mouse was randomly assigned to its corresponding treatment. […] The treatments were administered by oral gavage with 20-gauge straight reusable feeding needles (Fine Science Tools GmbH, Heidelberg, Germany). The volume of administration for the per os (p.o.) route was 10 mL/kg of body weight unless otherwise stated.
The quantification of parasitemia at different time points after the infection was performed by flow cytometry as previously described ([46]). Briefly, 2 μL of blood was taken from the lateral tail vein of HuMice and stained with SYTO-16 (Fisher Scientific), a membrane-permeable nonselective fluorescent nucleic acid dye to detect intraerythrocytic parasites, and TER119-phycoerythrin monoclonal antibody (Miltenyi Biotec, Bergisch Gladbach, Germany) as a marker of murine erythrocytes, exactly as described. The samples were acquired and analyzed in a Attune NxT acoustic focusing flow cytometer (Thermo Fisher Scientific, Waltham, MA). The limit of quantification was set to 0.01%, where a minimum of 100 infected events was considered the minimal statistically significant sample (~10^6 total erythrocytes counted for detection). Parasitemia was expressed as the percentage of parasitized erythrocytes with respect to the total erythrocytes in circulation and/or as the absolute concentration of circulating parasitized erythrocytes. For qualitative assessment of blood samples from infected mice, blood smears stained with 10% (vol/vol) Giemsa in saline buffer (0.015 M NaCl, 0.001 M phosphate buffer [pH 7.0]) were prepared and analyzed as described previously ([56]) in a Zeiss Primo Star 4 microscope (Thermo Fisher Scientific) at a magnification of ×100.
The treated mice that reached the limit of detection by standard flow cytometry (<0.01% from total circulating erythrocytes) after pharmacological treatment were maintained until day 60 of study.

[2] = Concentration of drugs in whole blood of P. falciparum 3D7^0087/N9-infected HuMice after oral dosing (LC-MS/MS, PK analysis); type: in vivo, mice; details: for AUC(0-t) / Cmax / Tmax / AUC0toTlast: mouse, in vivo; for AUC(0-t): AUC0toTlast
Protocol: as §1
The concentrations of drugs were measured in whole blood of P. falciparum 3D7^0087/N9-infected HuMice since the amount of plasma that could be obtained from each mouse was very low. Samples of peripheral blood (25 μL) were taken at different time points after dosing, mixed with 25 μL of 10.9 mM potassium oxalate and 59.5 mM sodium fluoride in Milli-Q water, and immediately frozen on a thermal block at −80°C. The frozen samples were stored at −80°C until analysis. Blood from P. falciparum 3D7^0087/N9-infected HuMice harboring a parasitemia of ~1.4% was used for preparation of standard curves, calibration, and quality control samples. The drugs were extracted from 10 μL of lysates, obtained by protein precipitation of blood samples, by using standard liquid-liquid extraction methods. The samples were analyzed by liquid chromatography-tandem mass spectrometry (LC-MS/MS) for quantification in Waters Micromass ultrahigh-performance triple quadrupole (UPLC-TQD) (Waters, Manchester, UK) mass spectrometers.
Multivariate linear regression, logistic regression, and descriptive statistics were carried out using GraphPad Prism 9.0 (GraphPad Software, San Diego, CA). The comparison of regression models was executed using the Akaike information criterion ([57]). Probability values of <0.05 were considered significant. Phoenix WinNonlin 8.2 (Certara, St. Louis, MO) was used for PK standard analysis.

[3] = Blood partitioning: distribution of drugs in plasma, erythrocytes and infected erythrocytes of the PfalcHuMouse; type: in vivo, mice; details: for fraction associated with circulating erythrocytes / fraction found in plasma: mouse, in vivo
Description: Given their physicochemical properties, both ferroquine and piperaquine might accumulate in infected erythrocytes ([41]), so we mined data on the distribution of these drugs in plasma, erythrocytes, and infected erythrocytes of the PfalcHuMouse from previous blood partitioning studies in unrelated drug discovery programs. Approximately 97.5% of both ferroquine and piperaquine was associated with circulating erythrocytes, while only 2.5% was found in plasma. For piperaquine, the accumulation was even higher in erythrocytes of infected individuals (>99%). Moreover, as previously reported ([13]), there was no sequestration of P. falciparum in vascular endothelium of the PfalcHuMouse. Therefore, the contribution of drug accumulated in mature parasites circulating in blood might be relevant, especially in proliferating parasites exposed to noninhibitory concentrations. Consequently, we corrected this effect on drug exposure in blood by dividing the total drug exposure levels in blood by the number of infected erythrocytes in circulation for each animal in the study.

[4] = artefenomel plus piperaquine model, intercept 102.8, n = 40, Tjur's R^2 = 0.91
[5] = ferroquine plus artefenomel model, intercept 17.2, n = 50, Tjur's R^2 = 0.31

For `Clc1ccc2c(N3CCN(CCCN4CCN(c5ccnc6cc(Cl)ccc56)CC4)CC3)ccnc2c1` [piperaquine], the “coefficient of log10AUC in logistic model of cure log(p/1−p)” value (shortened to “coefficient … of cure log(p/1−p)”) [1, 4] was 24.2, the “exposure leading to 95% probability of cure” value ([1]; monotherapy) was 3.47 × 10^−3 nmol/10^6 infected erythrocytes (iE) and the AUC(0-t) ([2]; po, 5 mg/kg) was 25300 ng·h/mL. The Cmax ([2]; po, 5 mg/kg) was 598 ng/mL, the AUC(0-t) ([2]; po, 10 mg/kg) was 21800 ng·h/mL and the Cmax ([2]; po, 10 mg/kg) was 346 ng/mL. It also gave an AUC(0-t) ([2]; po, 25 mg/kg) of 41900 ng·h/mL, a Cmax ([2]; po, 25 mg/kg) of 414 ng/mL and a Tmax ([2]; po, 25 mg/kg) of 77 h. It also gave an AUC0toTlast ([2]; po, 40 mg/kg) of 38866 ng·h/mL, an AUC(0-t) ([2]; po, 40 mg/kg) of 70000 ng·h/mL and a Cmax ([2]; po, 40 mg/kg) of 1120 ng/mL. It also gave an AUC(0-t) ([2]; po, 75 mg/kg) of 355000 ng·h/mL, a Cmax ([2]; po, 75 mg/kg) of 2550 ng/mL and a Tmax ([2]; po, 75 mg/kg) of 109 h. For the same compound, the “accumulation in erythrocytes of infected individuals” value ([3]; PfalcHuMouse, infected individuals) was over 99%, the “fraction associated with circulating erythrocytes” value [3] was “Approximately 97.5%” and the “fraction found in plasma” value [3] was 2.5%.

For `c1cc([C@H]2CC[C@]3(CC2)OO[C@]2(O3)C3CC4CC(C3)CC2C4)ccc1OCCN1CCOCC1` [artefenomel], the “coefficient … of cure log(p/1−p)” value [1, 4] was 16.2, the “coefficient … of cure log(p/1−p)” value [1, 5] was 1.6 and the “pattern of interaction with piperaquine on parasite killing in vivo” value ([1]; graphic analysis of cure, assuming potency of artefenomel in the same order of magnitude as piperaquine) was “synergistic”. For the same compound, the “mechanistic pattern of interaction with ferroquine” value ([1]; graphic analysis of cure, conditioned by large difference in intrinsic potency) was “additivity”, the “exposure up to which no cures were available in monotherapy” value ([1]; monotherapy, schedules of treatment used in the experimental studies) was “up to 4.7 × 10^−3 nmol/10^6 iE” and the AUC(0-t) ([2]; po, 100 mg/kg) was 40900 ng·h/mL. The Cmax ([2]; po, 100 mg/kg) was 2200 ng/mL and the Tmax ([2]; po, 100 mg/kg) was 2 h.

For `CNC[c-]1cccc1CNc1ccnc2cc(Cl)ccc12.[Fe+2].c1cc[cH-]c1` (stereo not shown) [SSR97213], the “share of the total exposure of ferroquine plus SSR97213” value ([2]; average, main metabolite of ferroquine) was 40%.

For `COc1ccc2nc3cc(Cl)ccc3c(Nc3cc(CN4CCCC4)c(O)c(CN4CCCC4)c3)c2n1` [pyronaridine], the “day after which no recrudescence occurred (DoR)” value [1] was at most 35 days.

In the case of ferroquine, the “coefficient … of cure log(p/1−p)” value [1, 5] is reported as 5.4, the “exposure leading to 95% probability of cure” value ([1]; monotherapy) is reported as 0.58 × 10^−3 nmol/10^6 infected erythrocytes (iE) and the AUC0toTlast ([2]; 20 mg/kg) is reported as 4708 ng·h/mL. For the same compound, the “fraction associated with circulating erythrocytes” value [3] was “Approximately 97.5%” and the “fraction found in plasma” value [3] was 2.5%.

In the case of `CCCCN(CCCC)CC(O)c1cc(Cl)cc2c1-c1ccc(Cl)cc1/C2=C/c1ccc(Cl)cc1` (stereo not shown) [lumefantrine], the “day after which no recrudescence occurred (DoR)” value [1] is reported as at most 35 days.
